Source: US9416141B2 (University of Washington through its Center for …, priority 2012, dated 2016)
Structures can show the parent of a compound that is named as a salt. Where two headings read alike, the source gives them in different places.

Test system: hair cells
Test: Hair cell toxicity assay in zebrafish (neomycin-induced hair cell death, DASPEI staining of neuromasts)
Assay type: in vivo
Conditions: for Emax at 25 µM: maximum observed @ 25 μM test compound; for EC50: zebrafish larvae 5-7 dpf, 1 h pre-treatment, then 200 micromolar neomycin + test compound 30 min, read-out: HC50 (concentration that would produce 50% hair cell survival); for Emax at 2.8 µM: maximum observed @ 2.8 μM test compound; for Emax at 8.3 µM: maximum observed @ 8.3 μM test compound
Summary of the method: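 Hair cell survival, as % of untreated controls, came from DASPEI scoring (0-2 each, ten neuromasts on one side) in 5-7 dpf larvae. These had 1 h compound pre-exposure (0.010-25 μM), then 200 μM neomycin with compound for 30 min. HCmax is peak protection; HC50 interpolated between flanking concentrations only when ≥50% survive.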

[1] = Danio rerio, 200 micromolar neomycin, read-out: Max HC Protection (HCmax, % hair cell survival)

CC(C)OC(=O)CCN1CCc2c(sc(NC(=O)Nc3ccc(Cl)cc3)c2C(N)=O)C1 [Example 54, Isopropyl 3-{3-carbamoyl-2-[3-(4-chlorophenyl)ureido]-4,5-dihydrothieno[2,3-c]pyridin-6(7H)-yl}propanoate hydrochloride]
Emax at 25 µM [1]: 58%
EC50 (Danio rerio): 1000 to 10000 nM

CC[N+]1(CC2CCCCC2)CCc2c(sc(NC(=O)Nc3ccc(Cl)cc3)c2C(N)=O)C1 (stereo not shown) [Example 195, 3-Carbamoyl-2-[3-(4-chlorophenyl)ureido]-6-(cyclohexylmethyl)-6-ethyl-4,5,6,7-tetrahydrothieno[2,3-c]pyridin-6-ium trifluoroacetate]
Emax at 0.9 µM (Danio rerio, maximum observed @ 0.9 μM test compound, 200 micromolar neomycin, read-out: Max HC Protection (HCmax, % hair cell survival)): 74%
EC50 (Danio rerio): < 1000 nM

CC1(C[N+]2(C)CCc3c(sc(NC(=O)Nc4ccc(Cl)cc4)c3C(N)=O)C2)CC1 (stereo not shown) [Example 196, 3-Carbamoyl-2-[3-(4-chlorophenyl)ureido]-6-methyl-6-[(1-methylcyclopropyl)methyl]-4,5,6,7-tetrahydrothieno[2,3-c]pyridin-6-ium trifluoroacetate]
Emax at 2.8 µM [1]: 85%
EC50 (Danio rerio): < 1000 nM

NC(=O)c1c(NC(=O)Nc2ccc(Cl)cc2)sc2c1CCN(CC(=O)O)C2 [Example 61, 2-{3-Carbamoyl-2-[3-(4-chlorophenyl)ureido]-4,5-dihydrothieno[2,3-c]pyridin-6(7H)-yl}acetic acid hydrochloride]
Emax at 25 µM [1]: 24%

CCN1CCc2c(sc(NC(=O)Nc3cccc4nsnc34)c2C(N)=O)C1 [Example 80, 2-[3-(Benzo[c][1,2,5]thiadiazol-4-yl)ureido]-6-ethyl-4,5,6,7-tetrahydrothieno[2,3-c]pyridine-3-carboxamide hydrochloride]
Emax at 8.3 µM [1]: 36%

CCN1CCc2c(sc(NC(=O)Nc3ccc(Cl)c4ccccc34)c2C(N)=O)C1 [Example 228, 2-{[(4-chloronaphthalen-1-yl)carbamoyl]amino}-6-ethyl-4H,5H,6H,7H-thieno[2,3-c]pyridine-3-carboxamide]
Emax at 25 µM [1]: 93%
EC50 (Danio rerio): 1000 to 10000 nM

CN1C2CCC1c1sc(NC(=O)Nc3ccc(Cl)cc3)c(C(N)=O)c1C2 (single isomer, unassigned; (+)) [Example 128, (+)-2-[3-(4-Chlorophenyl)ureido]-9-methyl-5,6,7,8-tetrahydro-4H-5,8-epiminocyclohepta[b]thiophene-3-carboxamide hydrochloride]
EC50 (hydrochloride): < 1000 nM

CCN1CCc2c(sc(NC(=O)NCc3ccc(Cl)cc3)c2C(N)=O)C1 [Example 76, 2-[3-(4-Chlorobenzyl)ureido]-6-ethyl-4,5,6,7-tetrahydrothieno[2,3-c]pyridine-3-carboxamide hydrochloride]
Emax at 25 µM [1]: 40%

NC(=O)c1c(NC(=O)Nc2ccc(Cl)cc2)sc2c1CCN(CC1CCCCC1)C2 [Example 16, 2-[3-(4-Chlorophenyl)ureido]-6-(cyclohexylmethyl)-4,5,6,7-tetrahydrothieno[23-c]pyridine-3-carboxamide hydrochloride]
Emax at 2.8 µM [1]: 57%
EC50 (Danio rerio): 1000 to 10000 nM

CC(C)OC(=O)CC[N+]1(C)CCc2c(sc(NC(=O)Nc3ccc(Cl)cc3)c2C(N)=O)C1 (stereo not shown) [Example 159, 3-Carbamoyl-2-[3-(4-chlorophenyl)ureido]-6-(3-isopropoxy-3-oxopropyl)-6-methyl-4,5,6,7-tetrahydrothieno[2,3-c]pyridin-6-ium iodide]
Emax at 2.8 µM [1]: 84%
EC50 (Danio rerio): < 1000 nM

CC(C)N1CCc2c(sc(NC(=O)Nc3ccc(Cl)cc3)c2C(N)=O)C1 [Example 2, 2-[3-(4-Chlorophenyl)ureido]-6-isopropyl-4,5,6,7-tetrahydrothieno[2,3-c]pyridine-3-carboxamide hydrochloride]
Emax at 25 µM [1]: 84%
EC50 (Danio rerio): 1000 to 10000 nM

CCN1CCc2c(sc(NC(=O)Nc3ccc(F)cc3)c2C(N)=O)C1 [Example 66, 6-Ethyl-2-[3-(4-fluorophenyl)ureido]-4,5,6,7-tetrahydrothieno[2,3-c]pyridine-3-carboxamide hydrochloride]
Emax at 25 µM [1]: 57%
EC50 (Danio rerio): > 10000 nM

NC(=O)c1c(NC(=O)Nc2ccc(Cl)cc2)sc2c1CC[N+]1(CCOCC1)C2 [Example 146, 3′-Carbamoyl-2′-[3-(4-chlorophenyl)ureido]-5′,7′-dihydro-4′H-spiro[morpholine-4,6′-thieno[2,3-c]pyridin]-4-ium iodide]
Emax at 25 µM [1]: 96%
EC50 (Danio rerio): 1000 to 10000 nM

COCCCN1CCc2c(sc(NC(=O)Nc3ccc(Cl)cc3)c2C(N)=O)C1 [Example 3, 2-[3-(4-Chlorophenyl)ureido]-6-(3-methoxypropyl)-4,5,6,7-tetrahydrothieno[2,3-c]pyridine-3-carboxamide hydrochloride]
Emax at 25 µM [1]: 76%
EC50 (Danio rerio): 1000 to 10000 nM

CCN1CCc2c(sc(NC(=O)Nc3ccc(Cl)cc3)c2C(=O)NCC2CC2)C1 [Example 97, 2-[3-(4-Chlorophenyl)ureido]-N-(cyclopropylmethyl)-6-ethyl-4,5,6,7-tetrahydrothieno[2,3-c]pyridine-3-carboxamide hydrochloride]
Emax at 8.3 µM [1]: 37%

CCN1CCc2c(sc(NC(=O)Nc3ccc(C(F)(F)F)cc3)c2C(N)=O)C1 [Example 221, 6-ethyl-2-({[4-(trifluoromethyl)phenyl]carbamoyl}amino)-4H,5H,6H,7H-thieno[2,3-c]pyridine-3-carboxamide]
Emax at 25 µM [1]: 68%
EC50 (Danio rerio): 1000 to 10000 nM

CC(C)(C)OC(=O)CN1CCc2c(sc(NC(=O)Nc3ccc(Cl)cc3)c2C(N)=O)C1 [Example 58, tert-butyl 2-{3-carbamoyl-2-[3-(4-chlorophenyl)ureido]-4,5-dihydrothieno[2,3-c]pyridin-6(7H)-yl}acetate]
Emax at 2.8 µM [1]: 7%

CC(C)(C)OC(=O)NCCN1CCc2c(sc(NC(=O)Nc3ccc(Cl)cc3)c2C(N)=O)C1 [Example 10, tert-Butyl 2-{3-carbamoyl-2-[3-(4-chlorophenyl)ureido]-4,5-dihydrothieno[2,3-c]pyridin-6(7H)-yl}ethylcarbamate]
Emax at 8.3 µM [1]: 13%

COCCC[N+]1(C)CCc2c(sc(NC(=O)Nc3ccc(Cl)cc3)c2C(N)=O)C1 (stereo not shown) [Example 141, 3-Carbamoyl-2-[3-(4-chlorophenyl)ureido]-6-(3-methoxypropyl)-6-methyl-4,5,6,7-tetrahydrothieno[2,3-c]pyridin-6-ium iodide]
Emax at 2.8 µM [1]: 77%
EC50 (Danio rerio): < 1000 nM

CCN1CCc2c(sc(NC(=O)Nc3ccc4ccccc4c3)c2C(N)=O)C1 [Example 223, 6-ethyl-2-{[(naphthalen-2-yl)carbamoyl]amino}-4H,5H,6H,7H-thieno[2,3-c]pyridine-3-carboxamide]
Emax at 25 µM [1]: 104%
EC50 (Danio rerio): 1000 to 10000 nM

CC(C)(C)CN1CCc2c(sc(NC(=O)Nc3ccc4ccccc4c3)c2C(N)=O)C1 [Example 36, 2-[3-(Naphthalen-2-yl)ureido]-6-neopentyl-4,5,6,7-tetrahydrothieno[2,3-c]pyridine-3-carboxamide hydrochloride]
Emax at 8.3 µM [1]: 13%
